The record followed here is patent publication US12258355B2, “Probes for imaging huntingtin protein” (CHDI Foundation, Inc., priority 2014, dated 2025).

The target in this test is T1, Q46 protein aggregates (Homo sapiens, UniProt P42858).
T1 construct: fused on or other part: GST at the N-terminus, cut off with thrombin before the test to start aggregation; The wells held aggregated Q46 without GST
T1 sequence (P42858 with tags, fused parts or gaps with the stated changes, form open): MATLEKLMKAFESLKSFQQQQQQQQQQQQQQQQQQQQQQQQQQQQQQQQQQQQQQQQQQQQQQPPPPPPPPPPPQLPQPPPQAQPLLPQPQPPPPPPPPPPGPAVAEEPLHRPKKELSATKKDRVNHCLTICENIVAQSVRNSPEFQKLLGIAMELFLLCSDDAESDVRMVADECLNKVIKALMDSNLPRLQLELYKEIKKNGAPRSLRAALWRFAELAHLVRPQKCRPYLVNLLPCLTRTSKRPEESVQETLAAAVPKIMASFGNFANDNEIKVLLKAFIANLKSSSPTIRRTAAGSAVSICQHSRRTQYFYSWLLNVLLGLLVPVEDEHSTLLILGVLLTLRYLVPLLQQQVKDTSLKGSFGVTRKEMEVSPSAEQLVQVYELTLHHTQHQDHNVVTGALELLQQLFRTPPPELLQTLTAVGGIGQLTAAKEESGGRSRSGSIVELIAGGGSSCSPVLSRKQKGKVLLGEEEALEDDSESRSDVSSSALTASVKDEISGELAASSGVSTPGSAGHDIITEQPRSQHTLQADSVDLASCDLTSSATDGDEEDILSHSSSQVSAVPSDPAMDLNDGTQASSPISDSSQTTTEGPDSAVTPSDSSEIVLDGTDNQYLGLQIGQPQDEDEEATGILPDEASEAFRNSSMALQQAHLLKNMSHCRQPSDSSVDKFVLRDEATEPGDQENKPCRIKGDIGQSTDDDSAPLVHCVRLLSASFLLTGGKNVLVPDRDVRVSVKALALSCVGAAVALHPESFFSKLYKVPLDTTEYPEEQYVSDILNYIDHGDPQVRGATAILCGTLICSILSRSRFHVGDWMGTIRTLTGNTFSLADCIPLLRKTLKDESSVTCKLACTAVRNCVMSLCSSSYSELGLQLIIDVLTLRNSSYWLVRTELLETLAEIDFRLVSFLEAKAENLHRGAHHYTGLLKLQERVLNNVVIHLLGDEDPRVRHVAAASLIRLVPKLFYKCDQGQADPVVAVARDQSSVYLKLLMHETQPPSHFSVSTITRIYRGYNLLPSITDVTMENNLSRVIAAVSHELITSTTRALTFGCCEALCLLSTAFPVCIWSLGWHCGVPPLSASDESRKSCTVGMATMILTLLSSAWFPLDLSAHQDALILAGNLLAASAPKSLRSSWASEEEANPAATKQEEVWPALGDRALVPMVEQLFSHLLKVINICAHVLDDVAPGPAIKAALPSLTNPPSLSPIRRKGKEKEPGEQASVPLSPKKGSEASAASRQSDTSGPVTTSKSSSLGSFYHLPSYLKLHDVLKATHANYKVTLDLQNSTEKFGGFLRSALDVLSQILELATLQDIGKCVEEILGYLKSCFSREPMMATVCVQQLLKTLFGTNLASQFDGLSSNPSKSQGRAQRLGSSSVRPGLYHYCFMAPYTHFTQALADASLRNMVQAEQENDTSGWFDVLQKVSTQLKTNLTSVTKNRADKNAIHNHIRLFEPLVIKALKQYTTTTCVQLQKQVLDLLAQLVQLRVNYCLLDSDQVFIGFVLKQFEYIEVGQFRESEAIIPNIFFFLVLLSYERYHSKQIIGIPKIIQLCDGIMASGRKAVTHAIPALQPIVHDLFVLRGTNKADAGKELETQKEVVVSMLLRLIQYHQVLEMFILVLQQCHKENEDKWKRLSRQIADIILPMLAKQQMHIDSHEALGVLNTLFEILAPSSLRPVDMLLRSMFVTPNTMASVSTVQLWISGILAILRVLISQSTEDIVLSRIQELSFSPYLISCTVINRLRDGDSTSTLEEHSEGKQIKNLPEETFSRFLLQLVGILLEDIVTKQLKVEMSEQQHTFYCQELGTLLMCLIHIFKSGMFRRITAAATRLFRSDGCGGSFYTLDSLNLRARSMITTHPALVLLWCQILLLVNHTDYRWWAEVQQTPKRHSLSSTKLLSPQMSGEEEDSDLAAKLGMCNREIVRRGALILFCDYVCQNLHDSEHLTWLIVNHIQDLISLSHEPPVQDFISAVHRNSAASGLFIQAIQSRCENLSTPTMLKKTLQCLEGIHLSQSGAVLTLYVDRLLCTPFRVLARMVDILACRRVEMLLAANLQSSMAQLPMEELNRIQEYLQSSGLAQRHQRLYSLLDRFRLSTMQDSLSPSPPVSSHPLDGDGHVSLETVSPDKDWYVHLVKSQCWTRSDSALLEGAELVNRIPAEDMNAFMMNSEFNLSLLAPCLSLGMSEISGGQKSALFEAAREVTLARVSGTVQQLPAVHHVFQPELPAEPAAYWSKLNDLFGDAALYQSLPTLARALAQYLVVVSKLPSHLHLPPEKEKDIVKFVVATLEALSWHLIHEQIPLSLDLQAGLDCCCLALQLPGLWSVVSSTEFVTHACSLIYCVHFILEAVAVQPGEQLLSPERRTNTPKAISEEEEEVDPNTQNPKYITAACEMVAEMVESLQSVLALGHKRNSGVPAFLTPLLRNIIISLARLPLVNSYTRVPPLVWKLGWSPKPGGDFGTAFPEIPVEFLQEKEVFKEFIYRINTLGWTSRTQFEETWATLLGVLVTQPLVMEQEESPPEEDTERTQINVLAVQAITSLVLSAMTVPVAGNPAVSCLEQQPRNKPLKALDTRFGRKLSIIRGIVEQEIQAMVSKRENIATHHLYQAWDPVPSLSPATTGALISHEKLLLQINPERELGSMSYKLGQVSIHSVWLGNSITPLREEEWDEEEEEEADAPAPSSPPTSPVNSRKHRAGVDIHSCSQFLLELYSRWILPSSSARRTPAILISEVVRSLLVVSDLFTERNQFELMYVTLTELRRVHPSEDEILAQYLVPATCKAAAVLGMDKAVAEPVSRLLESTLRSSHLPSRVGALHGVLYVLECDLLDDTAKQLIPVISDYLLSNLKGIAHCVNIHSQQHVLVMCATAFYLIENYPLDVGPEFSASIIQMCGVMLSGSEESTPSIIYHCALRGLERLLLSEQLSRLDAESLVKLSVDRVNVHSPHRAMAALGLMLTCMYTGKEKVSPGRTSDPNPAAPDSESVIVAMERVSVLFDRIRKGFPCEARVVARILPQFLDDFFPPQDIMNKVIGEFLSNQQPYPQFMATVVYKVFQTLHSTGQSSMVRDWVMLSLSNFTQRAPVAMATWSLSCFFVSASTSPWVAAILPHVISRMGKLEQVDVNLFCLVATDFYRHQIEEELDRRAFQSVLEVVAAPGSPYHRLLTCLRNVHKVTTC
In words: Q46 radioligand binding assay (RBA). Conditions: 10 nM ligand [3H3]MK-3328. Here is the method: Q46 Radioligand Binding Assay
For radioligand binding assays (RBA) GST-Q46 protein was generated based on a previous publication (Scherzinger et al. Cell, Vol. 90, 549-558, Aug. 8, 1997). For experiments 33 μM GST-Q46 was incubated with 150 μg/mL thrombin in assay buffer (150 mM NaCl, 50 mM Tris pH 8.0) and 2 mM CaCl2 for 16 hours at 37° C. Aggregated Q46 was pelleted by centrifugation for 5 minutes at 13,000 rpm in a bench top centrifuge and re-dissolved in the same volume of assay buffer. Test compounds were prepared by titration in DMSO at 11 concentrations from 33 μM to 1 nM. For the RBA, Q46 protein aggregates and test compounds were pre-incubated in assay buffer for 20 minutes at room temperature, in 140 μL/well in a 96-well plate (pp, round bottom). Then, ligand was added in 10 μL/well and incubated for 60 minutes at 37° C. Final assay concentrations were 1 μM to 30 pM test compound, 5 μM Q46 protein (equivalent monomer concentration) and 10 nM ligand [^3H3]MK-3328 (Harrision et al., ACS Med. Chem. Lett., 2 (2011), pp 498-502). Samples were transferred onto GF/B filter plates and washed 2× with 200 μL PBS using a Filtermate Harvester. After drying filter plates for 1 hour at 37° C., the back of the plates were sealed with foil and 30 μL/well scintillation fluid (Packard MicroScint 40) added, incubated for 15 minutes in the dark and counted in a TopCount reader. For analysis, replicate data from independent assay plates were normalized towards 0% and 100% inhibition using control wells of vehicle (0% inhibition) and 3 μM unlabelled MK-3328 (100% inhibition). IC50 values were determined with a sigmoidal inhibition model with four variables (top, bottom, slope, IC50) in a global fit using the normalized replicate data.
As a reminder, the IC50 is the midpoint of a concentration-inhibition curve. A lower IC50 goes with greater potency. As for `COc1ccc(COc2ccc3oc(-c4ccc(-c5ncccn5)cc4)nc3c2)nc1` [5-[(5-methoxypyridin-2-yl)methoxy]-2-[4-(pyrimidin-2-yl)phenyl]-1,3-benzoxazole], the IC50 is less than 100 nM.
To `C1=C(c2cc3cc(OCc4cccnc4)ccc3o2)N2CCN=C2S1` [3-{[(2-{5H,6H-imidazo[2,1-b][1,3]thiazol-3-yl}-1-benzofuran-5-yl)oxy]methyl}pyridine] belongs less than 100 nM; to `Cn1cc(-c2ccc(COc3cnc4oc(-c5cccnc5)nc4c3)nc2)cn1` [5-(1-methyl-1H-pyrazol-4-yl)-2-({[2-(pyridin-3-yl)-[1,3]oxazolo[5,4-b]pyridin-6-yl]oxy}methyl)pyridine], less than 100 nM.
To `CNc1ccc(-c2nc3cc(OCc4ccc(OC)cn4)ccc3o2)cn1` [5-{5-[(5-methoxypyridin-2-yl)methoxy]-1,3-benzoxazol-2-yl}-N-methylpyridin-2-amine] belongs less than 100 nM; to `COc1ccc(COc2ccc3oc(N4CC(F)C4)nc3c2)nc1` [2-(3-fluoroazetidin-1-yl)-5-[(5-methoxypyridin-2-yl)methoxy]-1,3-benzoxazole], 100 to 500 nM; to `c1cnc(Nc2ccc3oc(-c4cccnc4)nc3c2)nc1` [2-(pyridin-3-yl)-N-(pyrimidin-2-yl)-1,3-benzoxazol-5-amine], less than 100 nM.
With `COc1ccc(COC(=O)Nc2ccc3oc(-c4cccnc4)nc3c2)nc1` [(5-methoxypyridin-2-yl)methyl N-[2-(pyridin-3-yl)-1,3-benzoxazol-5-yl]carbamate], the IC50 is less than 100 nM.
To `COc1ccc2c(=O)n(-c3ccc4oc(-c5cccnc5)nc4c3)ccc2c1` [6-methoxy-2-[2-(pyridin-3-yl)-1,3-benzoxazol-5-yl]-1,2-dihydroisoquinolin-1-one] belongs 100 to 500 nM; to `COc1ccc(COc2ccc3oc(C4CCN(C)CC4)nc3c2)nc1` [5-[(5-methoxypyridin-2-yl)methoxy]-2-(1-methylpiperidin-4-yl)-1,3-benzoxazole], 100 to 500 nM.
Regarding `Cn1cc(COc2ccc3oc(-c4cnccc4C#N)cc3c2)cn1` [3-{5-[(1-methyl-1H-pyrazol-4-yl)methoxy]-1-benzofuran-2-yl}pyridine-4-carbonitrile], the IC50 is less than 100 nM.
For `Cn1ccnc1COc1ccc2oc(-c3ccncc3C#N)cc2c1` [4-{5-[(1-methyl-1H-imidazol-2-yl)methoxy]-1-benzofuran-2-yl}pyridine-3-carbonitrile], the IC50 fell in the range of 100 to 500 nM.
To `COc1ccc(COc2ccc3oc(-c4cncc(C)c4)nc3c2)nc1` [5-[(5-methoxypyridin-2-yl)methoxy]-2-(5-methylpyridin-3-yl)-1,3-benzoxazole] belongs less than 100 nM.
`COc1ccc(COc2ccc3oc(-c4ccc(C#N)cc4)nc3c2)nc1` [4-{5-[(5-methoxypyridin-2-yl)methoxy]-1,3-benzoxazol-2-yl]benzonitrile] yielded an IC50 of less than 100 nM.
On to `COc1cncc(COc2cnc3oc(-c4cccnc4)nc3c2)c1` [3-methoxy-5-({[2-(pyridin-3-yl)-[1,3]oxazolo[5,4-b]pyridin-6-yl]oxy}methyl)pyridine], for which the IC50 is less than 100 nM.
Compound `COc1ccc(COc2cnc3oc(-c4cnccn4)nc3c2)nc1` [2-{6-[(5-methoxypyridin-2-yl)methoxy]-[1,3]oxazolo[5,4-b]pyridin-2-yl]pyrazine] came in with an IC50 of less than 100 nM.
To `Cn1nc(C(=O)Nc2ccc3oc(-c4ccc(=O)n(C)n4)nc3c2)ccc1=O` [1-methyl-N-[2-(1-methyl-6-oxo-1,6-dihydropyridazin-3-yl)-1,3-benzoxazol-5-yl]-6-oxo-1,6-dihydropyridazine-3-carboxamide] belongs less than 100 nM.
To `N#Cc1ccncc1-c1cc2cc(OCc3cccnc3)ccc2o1` [3-[5-(pyridin-3-ylmethoxy)-1-benzofuran-2-yl]pyridine-4-carbonitrile] belongs less than 100 nM; to `O=C(Nc1ccc2oc(-c3cccnc3)nc2c1)c1ccc(C(F)(F)F)nc1` [N-[2-(pyridin-3-yl)-1,3-benzoxazol-5-yl]-6-(trifluoromethyl)pyridine-3-carboxamide], less than 100 nM; to `CC(C)(C)OC(=O)N1CCN(c2ccc3oc(-c4cccnc4)nc3c2)CC1` [tert-butyl 4-[2-(pyridin-3-yl)-1,3-benzoxazol-5-yl]piperazine-1-carboxylate], 100 to 500 nM.
To `COc1cncc(C(=O)Nc2ccc3oc(-c4cccnc4)nc3c2)c1` [5-methoxy-N-[2-(pyridin-3-yl)-1,3-benzoxazol-5-yl]pyridine-3-carboxamide] belongs less than 100 nM; to `COc1cnc(C(=O)Nc2ccc3oc(-c4cccc(C)c4)nc3c2)cn1` [5-methoxy-N-[2-(3-methylphenyl)-1,3-benzoxazol-5-yl]pyrazine-2-carboxamide], less than 100 nM; to `c1ccc(COc2ccc3oc(-c4cccnc4)nc3c2)nc1` [5-(pyridin-2-ylmethoxy)-2-(pyridin-3-yl)-1,3-benzoxazole], 100 to 500 nM.
`O=C(Nc1ccc2oc(-c3cccnc3)nc2c1)c1nnc(-c2ccccc2)o1` had an IC50 of less than 100 nM.
To `Brc1cnccc1-c1nc2ccc(OCCN3CCOCC3)cc2s1` [2-(3-bromopyridin-4-yl)-6-[2-(morpholin-4-yl)ethoxy]-1,3-benzothiazole] belongs less than 100 nM; to `COCCOc1cncc(-c2nc3cc(OCc4ccc(OC)cn4)ccc3o2)c1` [2-[5-(2-methoxyethoxy)pyridin-3-yl]-5-[(5-methoxypyridin-2-yl)methoxy]-1,3-benzoxazole], less than 100 nM.
`O=C(Nc1ccc2oc(-c3cccnc3)nc2c1)c1cnc(-c2ccccc2)nc1` [2-phenyl-N-[2-(pyridin-3-yl)-1,3-benzoxazol-5-yl]pyrimidine-5-carboxamide] registered an IC50 of less than 100 nM.
To `Oc1cnc(-c2ccc3oc(-c4cccnc4)nc3c2)cn1` [5-[2-(pyridin-3-yl)-1,3-benzoxazol-5-yl]pyrazin-2-ol] belongs 100 to 500 nM; to `COc1ccc(COc2ccc3oc(C4Cc5ccccc5O4)nc3c2)nc1` (stereo not shown) [2-(2,3-dihydro-1-benzofuran-2-yl)-5-[(5-methoxypyridin-2-yl)methoxy]-1,3-benzoxazole], less than 100 nM; to `CNc1ccc(COc2ccc3oc(-c4cccnc4)nc3c2)nc1` [N-methyl-6-({[2-(pyridin-3-yl)-1,3-benzoxazol-5-yl]oxy}methyl)pyridin-3-amine], less than 100 nM.
To `COc1cnc(COc2ccc3[nH]c(-c4cccnc4)nc3c2)cn1` [5-[(5-methoxypyrazin-2-yl)methoxy]-2-(pyridin-3-yl)-1H-1,3-benzodiazole] belongs less than 100 nM; to `COc1ccc(COc2ccc3oc(N4CCNCC4)nc3c2)nc1` [5-[(5-methoxypyridin-2-yl)methoxy]-2-(piperazin-1-yl)-1,3-benzoxazole], greater than 50 nM; to `O=C(Nc1ccc2oc(-c3cccnc3)nc2c1)OCc1ccc(O)cn1` [(5-hydroxypyridin-2-yl)methyl N-[2-(pyridin-3-yl)-1,3-benzoxazol-5-yl]carbamate], less than 100 nM.
To `O=C(Nc1ccc2oc(-c3cccnc3)nc2c1)c1ccc2c(c1)OCO2` [N-[2-(pyridin-3-yl)-1,3-benzoxazol-5-yl]-2H-1,3-benzodioxole-5-carboxamide] belongs less than 100 nM.
Compound `COc1ncc(C(=O)Nc2ccc3oc(-c4cccc(C)c4)nc3c2)cn1` [2-methoxy-N-[2-(3-methylphenyl)-1,3-benzoxazol-5-yl]pyrimidine-5-carboxamide] displayed an IC50 of less than 100 nM.
In turn, `O=C(Cc1ccc2oc(-c3cccnc3)nc2c1)c1ccccn1` [1-(pyridin-2-yl)-2-[2-(pyridin-3-yl)-1,3-benzoxazol-5-yl]ethan-1-one] displayed an IC50 of 100 to 500 nM.
To `Cc1cncc(C(=O)Nc2ccc3oc(-c4cccnc4)nc3c2)c1` [5-methyl-N-[2-(pyridin-3-yl)-1,3-benzoxazol-5-yl]pyridine-3-carboxatmide] belongs less than 100 nM.
To `COCCn1cc(COc2ccc3oc(-c4ccncc4C#N)cc3c2)cn1` [4-(5-{[1-(2-methoxyethyl)-1H-pyrazol-4-yl]methoxy}-1-benzofuran-2-yl)pyridine-3-carbonitrile] belongs less than 100 nM; to `CN(C)CCOc1ccc(COc2ccc3oc(-c4cccnc4)nc3c2)cc1` [dimethyl({2-[4-({[2-(pyridin-3-yl)-1,3-benzoxazol-5-yl]oxy}methyl)phenoxy]ethyl})amine], 100 to 500 nM.
`COc1cccc(COc2ccc3oc(-c4cccnc4)nc3c2)c1` [5-[(3-methoxyphenyl)methoxy]-2-(pyridin-3-yl)-1,3-benzoxazole] showed a 50% inhibitory concentration (IC50) of less than 100 nM.
To `Cn1nc(-c2nc3cc(OCc4ccc(O)cn4)ccc3o2)ccc1=O` [6-{5-[(5-hydroxypyridin-2-yl)methoxy]-1,3-benzoxazol-2-yl}-2-methyl-2,3-dihydropyridazin-3-one] belongs less than 100 nM.
